Measurements as given in BindingDB's records for PubMed 34029774 (Dpsr University, 2021).
pIC50, pKi: −log10 of the molar value.

Experiments:
[1] = target: Prostaglandin G/H synthase 2 (Ovis aries); test: Inhibition of ovine COX-2 colorimetric enzyme immunoassay
[2] = target: Prostaglandin G/H synthase 2 (Ovis aries); test: Inhibition of ovine COX-2 using arachidonic acid as substrate measured after 2 mins by colorimetric enzyme immune assay
[3] = target: Prostaglandin G/H synthase 2 (Ovis aries); test: Inhibition of ovine COX-2 by colorimetric inhibitor screening assay
[4] = target: Prostaglandin G/H synthase 2 (Homo sapiens) (UniProt P35354); test: Binding affinity to human recombinant COX-2 assessed as inhibition constant preincubated for 5 mins followed by arachidonic acid addition measured every 30 sec for 10 mins by fluorescence based assay
Sequence of Prostaglandin G/H synthase 2 (Homo sapiens) (P35354 whole entry, looked up): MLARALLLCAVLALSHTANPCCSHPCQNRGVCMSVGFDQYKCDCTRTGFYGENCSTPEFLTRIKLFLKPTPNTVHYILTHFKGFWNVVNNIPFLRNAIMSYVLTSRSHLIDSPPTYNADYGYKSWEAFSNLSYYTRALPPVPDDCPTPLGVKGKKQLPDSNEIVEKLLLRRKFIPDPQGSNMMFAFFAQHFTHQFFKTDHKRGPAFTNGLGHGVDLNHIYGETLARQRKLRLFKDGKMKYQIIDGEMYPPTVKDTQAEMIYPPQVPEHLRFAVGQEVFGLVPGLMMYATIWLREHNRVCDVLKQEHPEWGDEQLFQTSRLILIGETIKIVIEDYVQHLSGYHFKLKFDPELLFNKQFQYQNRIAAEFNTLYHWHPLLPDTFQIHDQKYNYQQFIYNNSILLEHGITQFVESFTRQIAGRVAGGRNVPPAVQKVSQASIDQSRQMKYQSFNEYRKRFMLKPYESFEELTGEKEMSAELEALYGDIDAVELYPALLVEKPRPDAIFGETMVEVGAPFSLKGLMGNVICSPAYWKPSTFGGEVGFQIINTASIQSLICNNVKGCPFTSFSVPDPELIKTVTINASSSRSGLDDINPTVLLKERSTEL

| SMILES | pIC50 [1] | pIC50 [2] | other results |
| --- | --- | --- | --- |
| C/C(=N/Nc1ccc(C(=O)O)cc1)c1cccc(N2C(=O)c3ccccc3C2=O)c1 | – | 6.96 | – |
| CC1=C(CC(=O)Sc2ccccc2)c2cc(F)ccc2/C1=C\c1ccc([S+](C)[O-])cc1 (stereo unspecified) | – | – | pIC50 [3]: 5.92 |
| C=C(/C=C\C)/C(CSc1nnc(-c2cc(-c3ccc(OC)cc3)nc3ccccc23)n1-c1ccccc1)=N\O | – | – | pKi [4]: 4.02 |

Further lines, with some results ahead:

| pIC50 [1] | pIC50 [2] | SMILES | other results |
| --- | --- | --- | --- |
| 8.19 | – | COc1ccc2cc(C(C)C(=O)O/N=C(\N)c3ccc(OC)c(OC)c3)ccc2c1 (stereo unspecified) | – |
| – | 6.77 | COc1ccc(/C=C/C(=O)c2cccc(N3C(=O)c4ccccc4C3=O)c2)cc1OC | – |
| 8.14 | – | COc1ccc2cc(C(C)C(=O)O/N=C(\N)c3ccc(Cl)cc3)ccc2c1 (stereo unspecified) | – |
